This note sets out measurements from patent US20120040897A1, “NOVEL DERIVATIVES OF ACYL CYANOPYRROLIDINES” (Sun Pharma Advanced Research Company Ltd., priority 2008, published 2012).

Assay type in all cases: biochemical
For experiment [1], the target named is T1, DPP IV (Rattus norvegicus, UniProt P14740).
T1 construct: from tissue; host or cells: rat plasma
Description: Invitro DPP4 inhibition assay in rat plasma. As to conditions: substrate Gly-Pro-AMC. As for the experimental part: The assay system comprises of […] of rat plasma, 20 mM MgCl2 test compound, 50 uM substrate Gly-Pro-AMC & buffer (25 mM HEPES, 140 mM NaCl, 1% BSA, pH 7.8) in a total reaction volume of 100 μl. The test compound was preincubated with plasma and MgCl2 for 10 minutes at 37° C. followed by further incubation of 20 minutes after addition of substrate. The experiment was repeated using vehicle as control. The AMC (7-Amino-4-Methylcoumarin) liberated in the samples was quantified in a Multilable counter at excitation wavelength 355 nm & emission wavelength 462 nm from a standard AMC plot. The DPP4 activity in each sample was represented as pmoles of AMC released/mg/min. Plasma protein was estimated by Lowry's method.

The target of experiment [2] is DPP7 (Homo sapiens, UniProt Q9UHL4). Briefly: Percent inhibition of DPP7 activity. The note with it: at 10000 nM concentration. The source says: (§1) The following Table 39 gives percent inhibition DPP7, DPP8 & DPP9 activity, as determined for exemplary compounds of the invention
For experiment [3], the target named is DPP8 (Homo sapiens, UniProt Q6V1X1). Briefly: Percent inhibition of DPP8 activity. The note with it: at 10000 nM concentration.
Sequence of DPP8 (Q6V1X1 whole entry, species assumed): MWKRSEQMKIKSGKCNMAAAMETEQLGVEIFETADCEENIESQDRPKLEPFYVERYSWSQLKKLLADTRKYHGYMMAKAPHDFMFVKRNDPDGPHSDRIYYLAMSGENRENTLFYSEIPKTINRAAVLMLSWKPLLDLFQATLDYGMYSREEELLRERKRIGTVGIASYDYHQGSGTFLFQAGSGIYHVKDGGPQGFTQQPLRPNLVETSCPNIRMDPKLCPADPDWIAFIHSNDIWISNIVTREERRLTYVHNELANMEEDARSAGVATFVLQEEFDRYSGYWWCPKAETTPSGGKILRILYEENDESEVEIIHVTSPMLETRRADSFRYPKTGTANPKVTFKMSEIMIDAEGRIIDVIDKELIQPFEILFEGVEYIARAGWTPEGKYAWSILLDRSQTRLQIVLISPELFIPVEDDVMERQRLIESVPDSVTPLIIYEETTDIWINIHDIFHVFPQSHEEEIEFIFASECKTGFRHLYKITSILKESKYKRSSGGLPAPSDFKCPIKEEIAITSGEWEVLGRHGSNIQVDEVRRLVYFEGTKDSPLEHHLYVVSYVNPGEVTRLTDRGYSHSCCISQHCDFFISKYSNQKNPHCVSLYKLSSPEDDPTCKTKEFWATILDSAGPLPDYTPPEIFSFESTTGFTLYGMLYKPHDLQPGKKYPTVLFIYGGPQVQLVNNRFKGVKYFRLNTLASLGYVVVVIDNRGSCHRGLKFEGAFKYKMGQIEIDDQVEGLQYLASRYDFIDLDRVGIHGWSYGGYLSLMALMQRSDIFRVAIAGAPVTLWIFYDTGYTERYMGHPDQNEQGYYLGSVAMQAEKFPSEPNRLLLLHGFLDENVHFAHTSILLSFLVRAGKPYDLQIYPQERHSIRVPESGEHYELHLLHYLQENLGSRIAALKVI
Description: as §1

Experiment [4] concerns the target DPP9 (Homo sapiens, UniProt Q86TI2). Briefly: Percent inhibition of DPP9 activity. As to conditions: at 10000 nM concentration.
Description: as §1

Molecules are shown by their SMILES.

T1 sequence (P14740 37-767 limits assumed): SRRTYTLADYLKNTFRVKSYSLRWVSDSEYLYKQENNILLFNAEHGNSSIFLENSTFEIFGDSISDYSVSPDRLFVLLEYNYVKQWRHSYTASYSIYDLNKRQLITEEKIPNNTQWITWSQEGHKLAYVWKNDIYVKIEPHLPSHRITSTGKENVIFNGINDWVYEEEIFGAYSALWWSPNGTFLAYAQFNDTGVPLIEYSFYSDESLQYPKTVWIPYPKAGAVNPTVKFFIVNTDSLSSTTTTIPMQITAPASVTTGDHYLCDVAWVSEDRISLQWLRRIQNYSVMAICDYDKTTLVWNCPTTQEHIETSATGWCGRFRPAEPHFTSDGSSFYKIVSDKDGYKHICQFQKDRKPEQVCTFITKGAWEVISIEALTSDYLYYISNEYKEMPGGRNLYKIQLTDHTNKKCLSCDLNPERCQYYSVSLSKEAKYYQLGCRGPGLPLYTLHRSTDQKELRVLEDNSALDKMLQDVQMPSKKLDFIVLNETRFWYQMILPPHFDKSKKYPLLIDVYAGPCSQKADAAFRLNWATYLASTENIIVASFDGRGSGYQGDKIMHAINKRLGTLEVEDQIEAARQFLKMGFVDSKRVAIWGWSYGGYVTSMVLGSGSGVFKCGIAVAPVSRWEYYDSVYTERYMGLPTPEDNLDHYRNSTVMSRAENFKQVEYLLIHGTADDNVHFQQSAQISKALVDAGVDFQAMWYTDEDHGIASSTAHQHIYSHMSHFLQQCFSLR
Sequence of DPP9 (Q86TI2 whole entry, species assumed): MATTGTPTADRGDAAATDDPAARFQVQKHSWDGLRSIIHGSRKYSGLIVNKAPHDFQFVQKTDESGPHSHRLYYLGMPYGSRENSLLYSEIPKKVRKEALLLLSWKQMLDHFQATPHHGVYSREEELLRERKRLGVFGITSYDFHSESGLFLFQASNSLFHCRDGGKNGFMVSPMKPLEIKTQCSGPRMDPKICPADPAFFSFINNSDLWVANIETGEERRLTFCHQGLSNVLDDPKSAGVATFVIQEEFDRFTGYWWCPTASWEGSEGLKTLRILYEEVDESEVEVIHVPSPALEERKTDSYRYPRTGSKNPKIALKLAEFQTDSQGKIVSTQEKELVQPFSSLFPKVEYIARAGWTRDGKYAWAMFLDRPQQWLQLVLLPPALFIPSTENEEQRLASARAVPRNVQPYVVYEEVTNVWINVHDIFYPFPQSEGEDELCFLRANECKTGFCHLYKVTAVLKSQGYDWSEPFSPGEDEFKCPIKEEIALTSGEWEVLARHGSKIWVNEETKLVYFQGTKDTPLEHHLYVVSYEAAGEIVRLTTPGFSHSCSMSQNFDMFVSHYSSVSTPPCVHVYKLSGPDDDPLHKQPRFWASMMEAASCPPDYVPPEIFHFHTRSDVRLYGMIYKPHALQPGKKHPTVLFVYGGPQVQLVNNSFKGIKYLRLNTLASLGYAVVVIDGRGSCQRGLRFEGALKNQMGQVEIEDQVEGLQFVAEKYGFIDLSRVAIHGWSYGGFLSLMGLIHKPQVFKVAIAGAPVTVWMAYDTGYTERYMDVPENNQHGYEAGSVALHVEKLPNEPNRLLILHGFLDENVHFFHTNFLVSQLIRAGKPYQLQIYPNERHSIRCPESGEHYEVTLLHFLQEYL

By IC50 is commonly meant the concentration that inhibits the measured activity by half. Low values mean inhibition by little substance, high ones a need for much substance. The term inhibition denotes the percentage by which the read-out fell short of the control. Lower therefore signals a weak effect. For `CC1(C)O[C@@H]2[C@@H](CO[C@@]3(CN4CCC(NCC(=O)N5CCC[C@H]5C#N)CC4)OC(C)(C)O[C@@H]23)O1` [Example 1, 2,3:4,5-di-O-isopropylidene-1-[piperidin-(4-aminoacetylpyrrolidine-2-(S)-carbonitrile}-1-yl]-1-deoxy-β-D-fructopyranose], the 50% inhibitory concentration (IC50) in experiment [1] is 5.98 nM. Also, the inhibition at 10 µM turned out to be 0% in experiment [2], 18% in experiment [3] and 29% in experiment [4].
Regarding `CC1(NCC(=O)N2CCC[C@H]2C#N)CCN(S(=O)(=O)OC[C@H]2O[C@@H]3OC(C)(C)O[C@@H]3[C@H]3OC(C)(C)O[C@H]32)CC1` [Example 112, 1,2:3,4-di-O-isopropylidene-6-[piperidin-{(4-aminoacetylpyrrolidine-2-(S)-carbonitrile)-4-methyl-1-sulfonyl}-1-yl]-D-galactopyranose], the midpoint of inhibition in experiment [1], the IC50, lay at 18.2 nM.
On the same count and under the same terms, with `CCOCCO[C@@H]1O[C@H](CN2CCC(C)(NCC(=O)N3CCC[C@H]3C#N)CC2)[C@H]2OC(C)(C)O[C@@H]12` [Example 123, 2,3-O-Isopropylidene-β-1-O-ethoxyethyl-5-[piperidin-{4-aminoacetylpyrrolidine-2-(S)-carbonitrile}(4-methyl)-1-yl]-5-deoxy-D-ribofuranose] the figure was 14.3 nM.
In experiment [1], `CC1(NCC(=O)N2CCC[C@H]2C#N)CCN(C[C@H]2O[C@@H]3OC(C)(C)O[C@@H]3[C@H]2O)CC1` [Example 135, 1,2-O-Isopropylidene-5-[4-methylpiperidin-{4-aminoacetylpyrrolidine-2-(S)-carbonitrile}-1-yl]-5-deoxy-α-D-xylofuranose] gave an IC50 of 22.3 nM.
